Measurements reported in patent publication US20060160869A1, “Ubiquitin ligase inhibitors” (Rigel Pharmaceuticals, Inc., priority 2005, published 2006).

What was measured:
Assay type in all cases: biochemical
MDM2 = MDM2 (Homo sapiens, UniProt Q00987); test: Plate-based E3 ligase assay, MDM2 autoubiquitination (MDM2-FLAG); details: Table 2; read-out: MDM2 IC50
Experimental: (§1) E3 (His-APC11/APC2—“APC”) auto-ubiquitination was measured as described in U.S. patent application Ser. No. 09/826,312 (Publication No. US-2002-0042083-A1), which is incorporated herein in its entirety. Details of the protocol are described below. Activity in the presence of the compound was determined relative to a parallel control in which only DMSO was added. Values of the IC50 were typically determined using 6 or 8 different concentrations of the compound, although as few as 2 concentrations may be used to approximate the IC50 value.
(§2) Nickel-coated 96-well plates (Pierce 15242) were blocked for 1 hour with 100 μl of blocking buffer at room temperature. The plates were washed 4 times with 225 μl of 1×PBS and 80 μl of the reaction buffer were added that contained 100 ng/well of Flag-ubiquitin. To this, 10 μl of the test compound diluted in DMSO were added. After the test compound was added, 10 μl of E1 (human), E2 (Ubch5c), and APC in Protein Buffer was added to obtain a final concentration of 5 ng/well of E1, 20 ng/well: of E2 and 100 ng/well of APC. The plate were shaken for 10 minutes and incubated at room temperature for 1 hour. After incubation, the plates were washed 4 times with 225 μl of 1×PBS and 100 μl/well of Antibody Mix were added to each well. The plates were incubate at room temperature for another hour after which they were washed 4 times with 225 μl of 1×PBS and 100 μl/well of Lumino substrate were added to each well. The luminescence was measured by using a BMG luminescence microplate reader.
In similar manner, autoubiquitination of the E3 MDM2 was determined (MDM2-FLAG). Further instruction in such assays can be found in U.S. patent application Ser. No. 10/108,767 (Publication No. US-2003-0104474 A1), which is incorporated herein in its entirety.
hMDM2 Plate/Gel is Mouse double minute 2, human homolog. This protein belongs to the E3 RING finger ligase group.

[1] = target: E3 (His-APC11/APC2, "APC") (Homo sapiens, UniProt Q9NYG5+Q9UJX6); test: Plate-based E3 ligase assay (APC FLAG), auto-ubiquitination; details: Table 2; read-out: APC IC50
Experimental: as §1, §2
APC Plate/gel is Anaphase Promoting Complex. This protein also belongs to E3 RING finger ligase group.

E2 (Ubch5c) = E2 (Ubch5c) (Homo sapiens, UniProt P61077); test: E2 ligase assay, E2 auto-ubiquitination; details: Table 2
Experimental: E2 (Ubch5c) auto-ubiquitination was measured as described in U.S. patent application Ser. No. 09/826,312 (Publication No. US-2002-0042083-A1), which is incorporated herein in its entirety. Details of the protocol are described below. Activity in the presence of the test compound was determined relative to a parallel control in which only DMSO was added. The IC50 values were typically determined using 6 or 8 different concentrations of compound, although as few as 2 concentrations may be used to approximate IC50 values.
Corning 96-well plates (Corning 3650) were blocked with 100 μl of Blocking Buffer for 1 hour at room temperature. The plates were washed for 4 times with 225 μl of 1×PBS and 80 μl of the reaction buffer were added that contained 100 ng/well of Flag-ubiquitin. To this, 10 μl of the test compound diluted in DMSO were added. After the test compound was added, 10 μl of E1 (human) and E2 (Ubch5c) in Protein Buffer were added to obtain a final concentration of 5 ng/well of E1 and 20 ng/well of E2. The plates were shaken for 10 minutes and incubated at room temperature for 1 hour. After incubation, the reaction was stopped by adding 25 μl of loading buffer (non-reducing) per well and the plates were heated at 95° C. for 5 minutes. An aliquot of each well was run on a 10% NugePage Gel and analyzed by Western Blot using the antibody mix and Lumino substrate described below. The luminescence was measured using a BMG luminescence microplate reader.

Sequence of MDM2 (Q00987 whole entry): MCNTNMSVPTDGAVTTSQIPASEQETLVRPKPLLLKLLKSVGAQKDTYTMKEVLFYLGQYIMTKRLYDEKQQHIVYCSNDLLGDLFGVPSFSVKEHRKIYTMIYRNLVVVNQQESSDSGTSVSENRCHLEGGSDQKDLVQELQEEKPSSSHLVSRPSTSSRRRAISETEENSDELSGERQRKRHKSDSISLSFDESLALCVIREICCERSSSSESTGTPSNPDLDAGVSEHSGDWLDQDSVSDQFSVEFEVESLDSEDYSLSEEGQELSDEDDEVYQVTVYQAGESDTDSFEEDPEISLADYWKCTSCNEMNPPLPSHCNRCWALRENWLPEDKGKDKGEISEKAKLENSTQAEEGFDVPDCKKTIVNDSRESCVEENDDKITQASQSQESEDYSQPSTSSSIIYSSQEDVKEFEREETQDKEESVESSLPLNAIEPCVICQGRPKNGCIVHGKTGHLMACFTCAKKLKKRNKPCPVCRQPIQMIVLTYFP
Sequence of E2 (Ubch5c) (P61077 whole entry): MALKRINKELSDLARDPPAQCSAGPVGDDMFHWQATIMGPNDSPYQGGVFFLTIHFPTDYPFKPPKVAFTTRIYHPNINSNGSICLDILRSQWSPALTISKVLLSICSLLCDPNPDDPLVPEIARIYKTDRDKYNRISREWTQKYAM
Sequence of E3 (His-APC11/APC2, "APC") (Q9NYG5 whole entry): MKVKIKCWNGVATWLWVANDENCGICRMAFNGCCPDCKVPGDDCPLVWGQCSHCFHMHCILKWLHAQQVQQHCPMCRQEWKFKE
Sequence of E3 (His-APC11/APC2, "APC") (Q9UJX6 whole entry): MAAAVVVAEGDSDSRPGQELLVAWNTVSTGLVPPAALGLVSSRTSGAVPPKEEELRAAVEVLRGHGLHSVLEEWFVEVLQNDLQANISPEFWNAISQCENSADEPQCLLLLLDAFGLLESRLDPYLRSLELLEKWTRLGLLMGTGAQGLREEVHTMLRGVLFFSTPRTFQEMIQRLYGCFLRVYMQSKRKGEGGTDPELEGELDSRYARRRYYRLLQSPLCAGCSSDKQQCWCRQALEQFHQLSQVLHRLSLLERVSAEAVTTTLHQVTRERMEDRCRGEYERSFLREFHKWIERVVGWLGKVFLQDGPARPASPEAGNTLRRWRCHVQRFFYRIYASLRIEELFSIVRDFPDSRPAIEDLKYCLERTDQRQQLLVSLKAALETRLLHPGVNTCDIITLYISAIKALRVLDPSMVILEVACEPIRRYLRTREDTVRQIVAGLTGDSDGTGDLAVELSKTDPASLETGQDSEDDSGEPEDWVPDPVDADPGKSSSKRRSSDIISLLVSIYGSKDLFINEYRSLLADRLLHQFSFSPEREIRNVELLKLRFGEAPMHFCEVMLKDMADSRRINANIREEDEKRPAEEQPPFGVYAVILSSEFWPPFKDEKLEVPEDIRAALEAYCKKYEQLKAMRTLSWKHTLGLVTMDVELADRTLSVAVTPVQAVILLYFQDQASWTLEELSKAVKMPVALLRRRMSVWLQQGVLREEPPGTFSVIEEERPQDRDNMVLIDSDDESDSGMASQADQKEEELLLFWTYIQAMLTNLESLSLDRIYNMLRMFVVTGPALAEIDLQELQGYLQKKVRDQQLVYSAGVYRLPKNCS

| IC50 (MDM2) [µM] | IC50 [1] [µM] | IC50 (E2 (Ubch5c)) [µM] | Compound |
| --- | --- | --- | --- |
| ≥ 20 | ≥ 20 | – | Cc1sc(N(C)Cc2ccc(C(=O)NCc3cccc(CN)c3)cc2)nc1-c1ccccc1 [compound 14] |
| 1 to 20 | 1 to 20 | – | CN(Cc1ccc(C(=O)NC(Cc2ccccc2)C(=O)O)cc1)c1nc(-c2ccc(Cl)cc2)cs1 (stereo not drawn) [compound 15] |
| 1 to 20 | 1 to 20 | – | CCN(Cc1ccc(C(=O)NCc2cccc(CN)c2)cc1)c1nc(-c2ccc(-c3ccccc3)cc2)cs1 [compound 65] |
| ≥ 20 | – | – | CCN(Cc1ccc(C(=O)NCC(=O)O)cc1)c1nc(-c2ccc(Cl)cc2)cs1 [compound 146, N-(4-{[[4-(4-chlorophenyl)-1,3-thiazol-2-yl](ethyl)amino]methyl}benzoyl)glycine] |
| < 1 | – | – | COc1cccc(-c2csc(N(Cc3ccccc3)Cc3ccc(C(=O)NCC(=O)O)cc3)n2)c1 [compound 177] |
| 1 to 20 | – | – | O=C(O)CNC(=O)c1ccc(CN(CCc2ccccc2)c2nc(-c3ccccc3)cs2)cc1 [compound 186] |
| 1 to 20 | – | – | CCN(Cc1ccc(C(=O)NCC(=O)O)cc1)c1nc(-c2ccc(-c3ccccc3)cc2)cs1 [compound 193] |
| 1 to 20 | – | – | COc1ccc(OC)c(-c2csc(N(Cc3ccccc3)Cc3ccc(C(=O)NCC(=O)O)cc3)n2)c1 [compound 207] |
| < 1 | 1 to 20 | – | COc1ccc(OC)c(-c2csc(N(Cc3ccc(C(=O)NCC(=O)O)cc3)c3ccccc3F)n2)c1 [compound 215] |
| 1 to 20 | – | – | O=C(O)CNC(=O)c1ccc(CN(Cc2ccccc2)c2nc(-c3ccccc3)cs2)cc1 [compound 216] |
| ≥ 20 | ≥ 20 | – | COc1ccc(-c2csc(N(Cc3ccc(C(=O)N4CCNCC4)cc3)Cc3cccc(OC(F)(F)F)c3)n2)cc1 [compound 222] |
| ≥ 20 | ≥ 20 | – | COc1ccc(-c2csc(N(CCOc3ccccc3)Cc3ccc(C(=O)N4CCNCC4)cc3)n2)cc1 [compound 223] |
| ≥ 20 | ≥ 20 | – | COc1cccc(CN(Cc2ccc(C(=O)N3CCNCC3)cc2)c2nc(-c3cccc([N+](=O)[O-])c3)cs2)c1OC [compound 224] |
| ≥ 20 | ≥ 20 | – | CC(C)N(CCN(Cc1ccc(C(=O)N2CCNCC2)cc1)c1nc(-c2ccccc2Cl)cs1)C(C)C [compound 225] |
| ≥ 20 | ≥ 20 | – | COc1ccc(-c2csc(N(CCN(C(C)C)C(C)C)Cc3ccc(C(=O)N4CCNCC4)cc3)n2)cc1 [compound 227] |
| ≥ 20 | 1 to 20 | – | O=C(c1ccc(CN(Cc2cccc(OC(F)(F)F)c2)c2nc(-c3cccc([N+](=O)[O-])c3)cs2)cc1)N1CCNCC1 [compound 228] |
| ≥ 20 | 1 to 20 | – | COc1cccc(CN(Cc2ccc(C(=O)N3CCNCC3)cc2)c2nc(-c3ccc(C)cc3)cs2)c1OC [compound 230] |
| ≥ 20 | ≥ 20 | – | COc1cccc(-c2csc(N(CCN(C(C)C)C(C)C)Cc3ccc(C(=O)N4CCNCC4)cc3)n2)c1 [compound 231] |

| IC50 (MDM2) [µM] | IC50 [1] [µM] | IC50 (E2 (Ubch5c)) [µM] | Compound |
| --- | --- | --- | --- |
| 1 to 20 | 1 to 20 | – | Cc1ccc(-c2csc(N(Cc3ccc(C(=O)N4CCNCC4)cc3)Cc3cccc(OC(F)(F)F)c3)n2)cc1 [compound 235] |
| ≥ 20 | 1 to 20 | – | COc1cccc(CN(Cc2ccc(C(=O)N3CCNCC3)cc2)c2nc(-c3ccc(Cl)cc3)cs2)c1OC [compound 245] |
| ≥ 20 | ≥ 20 | – | O=C(c1ccc(CN(Cc2cccc(OC(F)(F)F)c2)c2nc(-c3ccc(Cl)cc3)cs2)cc1)N1CCNCC1 [compound 251] |
| ≥ 20 | 1 to 20 | – | O=C(c1ccc(CN(CCOc2ccccc2)c2nc(-c3ccc(Cl)cc3)cs2)cc1)N1CCNCC1 [compound 252] |
| ≥ 20 | 1 to 20 | – | COc1ccc(OC)c(-c2csc(N(Cc3ccc(C(=O)N4CCNCC4)cc3)Cc3cccc(OC(F)(F)F)c3)n2)c1 [compound 267] |
| ≥ 20 | ≥ 20 | – | COc1ccc(OC)c(-c2csc(N(CCOc3ccccc3)Cc3ccc(C(=O)N4CCNCC4)cc3)n2)c1 [compound 268] |
| – | ≥ 20 | – | COc1cccc(CN(Cc2ccc(C(=O)N3CCNCC3)cc2)c2nc(-c3ccc(C)cc3)cs2)c1OC [compound 283] |
| ≥ 20 | ≥ 20 | – | O=C(c1ccc(CN(c2nc(-c3ccc(Cl)cc3)cs2)c2cccc3ccccc23)cc1)N1CCNCC1 [compound 289] |
| ≥ 20 | ≥ 20 | – | O=C(c1ccc(CN(CCOc2ccccc2)c2nc(-c3ccc(F)cc3)cs2)cc1)N1CCNCC1 [compound 290] |
| ≥ 20 | 1 to 20 | – | COc1ccc(-c2csc(N(Cc3ccc(C(=O)N4CCNCC4)cc3)Cc3cccc(OC)c3OC)n2)cc1 [compound 291] |
| ≥ 20 | ≥ 20 | – | COc1ccccc1-c1csc(N(CCN(C(C)C)C(C)C)Cc2ccc(C(=O)N3CCNCC3)cc2)n1 [compound 292] |
| 1 to 20 | 1 to 20 | ≥ 20 | COc1cccc(CN(Cc2ccc(C(=O)N3CCNCC3)cc2)c2nc(-c3ccc(Cl)c(Cl)c3)cs2)c1OC [compound 297] |
| 1 to 20 | 1 to 20 | ≥ 20 | COc1ccccc1-c1csc(N(Cc2ccc(C(=O)N3CCNCC3)cc2)Cc2cccc(OC(F)(F)F)c2)n1 [compound 328] |
| 1 to 20 | 1 to 20 | – | O=C(c1ccc(CN(Cc2cccc(OC(F)(F)F)c2)c2nc(-c3ccc(Br)cc3)cs2)cc1)N1CCNCC1 [compound 343] |
| 1 to 20 | 1 to 20 | – | O=C(c1ccc(CN(CCOc2ccccc2)c2nc(-c3ccc(Br)cc3)cs2)cc1)N1CCNCC1 [compound 344] |
| ≥ 20 | 1 to 20 | ≥ 20 | COc1cccc(CN(Cc2ccc(C(=O)N3CCNCC3)cc2)c2nc(-c3ccccc3Cl)cs2)c1OC [compound 345] |
| 1 to 20 | 1 to 20 | – | O=C(c1ccc(CN(Cc2cccc(OC(F)(F)F)c2)c2nc(-c3ccc(Cl)c(Cl)c3)cs2)cc1)N1CCNCC1 [compound 359] |
